Assay [1] deals with T1, SHV-5 β-lactamase (Class A ESBL) (Klebsiella pneumoniae, UniProt P0A3M1).
T1 construct: made in house; host or cells: E. coli BL21(DE3)
Nature of the assay: β-Lactamase inhibition, SHV-5. In kind it is biochemical. In short, it runs like this: (§1)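 Native untagged enzymes expressed in E. coli BL21(DE3), purified by cation exchange and gel filtration. Inhibitor preincubated with enzyme 15 min at 37 °C; hydrolysis followed by absorbance: imipenem at 300 nm for KPC-2, cefotaxime at 260 nm for SHV-5. IC50 as concentration halving initial hydrolysis rate versus inhibitor-free wells.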

Assay [2] deals with T2, KPC-2 β-lactamase (Class A carbapenemase) (Klebsiella pneumoniae, UniProt Q9F663).
T2 construct: made in house; host or cells: E. coli BL21(DE3)
T2 sequence (Q9F663 25-293, looked up): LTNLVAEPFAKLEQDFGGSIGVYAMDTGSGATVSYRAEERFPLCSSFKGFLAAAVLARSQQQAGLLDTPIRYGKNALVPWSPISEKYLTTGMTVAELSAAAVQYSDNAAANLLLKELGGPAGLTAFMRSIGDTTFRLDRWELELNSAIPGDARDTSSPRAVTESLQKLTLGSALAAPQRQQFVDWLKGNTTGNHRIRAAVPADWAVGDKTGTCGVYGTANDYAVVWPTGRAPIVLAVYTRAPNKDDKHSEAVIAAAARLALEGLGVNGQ
Briefly: β-Lactamase inhibition, KPC-2. The format is biochemical. The settings on record: imipenem substrate, 300 nm; 15 min preincubation at 37° C., PBS pH 7.4. In short, it runs like this:
as §1

The target in assay [3] is T3, VIM-2 metallo-β-lactamase (Class B) (Pseudomonas aeruginosa, UniProt Q9K2N0).
T3 construct: made in house; host or cells: E. coli BL21(DE3)
Briefly: β-Lactamase inhibition, VIM-2. In kind it is biochemical. The settings on record: nitrocefin 100 μM, 486 nm; 15 min preincubation at 37° C., PBS pH 7.4. In short, it runs like this:
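Purified VIM-2 preincubated with inhibitor for 15 min at 37° C, then nitrocefin (100 μM final) added and absorbance at 486 nm followed for 10 min. Maximum hydrolysis rates compared with inhibitor-free controls; IC50 fitted from percent inhibition across inhibitor concentrations.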

Assay [4] deals with T4, p99 AmpC β-lactamase (Class C) (Enterobacter cloacae, UniProt P05364).
T4 construct: made in house; host or cells: E. coli BL21(DE3)
T4 sequence (P05364 21-381): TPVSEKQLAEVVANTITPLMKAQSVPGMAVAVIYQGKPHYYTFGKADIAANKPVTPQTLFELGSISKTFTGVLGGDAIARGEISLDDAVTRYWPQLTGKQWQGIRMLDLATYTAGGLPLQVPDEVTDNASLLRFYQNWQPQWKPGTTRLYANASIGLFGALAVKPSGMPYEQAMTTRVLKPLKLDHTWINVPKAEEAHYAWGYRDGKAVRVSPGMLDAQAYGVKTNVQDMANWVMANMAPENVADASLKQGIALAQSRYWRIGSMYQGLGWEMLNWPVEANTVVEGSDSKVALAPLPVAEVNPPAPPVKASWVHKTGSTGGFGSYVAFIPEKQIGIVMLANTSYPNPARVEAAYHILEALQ
Briefly: β-Lactamase inhibition, p99 AmpC. In kind it is biochemical.

The target in assay [5] is T5, OXA-1 β-lactamase (Class D oxacillinase) (Escherichia coli, UniProt P13661).
T5 construct: made in house; host or cells: E. coli BL21(DE3)
T5 sequence (P13661 26-276): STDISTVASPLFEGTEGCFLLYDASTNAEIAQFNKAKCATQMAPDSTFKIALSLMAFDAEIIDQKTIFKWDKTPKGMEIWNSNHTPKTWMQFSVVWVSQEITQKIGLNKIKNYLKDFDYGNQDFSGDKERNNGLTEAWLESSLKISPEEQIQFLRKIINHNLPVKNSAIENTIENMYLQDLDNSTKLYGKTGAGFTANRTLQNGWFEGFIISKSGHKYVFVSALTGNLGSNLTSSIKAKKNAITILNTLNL
Nature of the assay: β-Lactamase inhibition, OXA-1. The format is biochemical. The settings on record: nitrocefin 100 μM, 486 nm; 15 min preincubation at 37° C., PBS pH 7.4. In outline:
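Untagged enzyme from E. coli BL21(DE3), purified by Capto S then Superdex 75; 15 min 37 °C preincubation with inhibitor; KPC-2 read with imipenem at 300 nm, SHV-5 with cefotaxime at 260 nm, OXA-1 with nitrocefin 100 μM final at 486 nm; 10 min kinetic read; IC50 vs uninhibited wells.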

In assay [6] the test system is E. coli ESBL4 expressing CTX-M-15. Nature of the assay: Broth microdilution MIC, E. coli ESBL4 CTX-M-15. In kind it is cell-based. The conditions noted are these: fixed 4 μg/mL ceftazidime; CAMHB, 16-20 hours at 37° C. In outline:
(§2)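 Potentiation MICs in CAMHB, with test compound at 32–0.25 μg/mL final alongside a β-lactam held at a fixed 4 μg/mL final. Strains pre-grown 3–5 h and inoculated per CLSI broth microdilution, then incubated 16–20 h at 37° C. MIC read visually.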
Background: In broth dilution the organism is exposed to a series of concentrations in liquid medium.

Assay [7] deals with E. cloacae 144200 expressing Class C P99 AmpC. Nature of the assay: Broth microdilution MIC, E. cloacae 144200 p99 AmpC. In kind it is cell-based. The settings on record: fixed 4 μg/mL ceftazidime; CAMHB, 16-20 hours at 37° C. In outline:
as §2

The subject of assay [8] is K. pneumoniae 156319 expressing KPC-3. Briefly: Broth microdilution MIC, K. pneumoniae 156319 KPC-3. The format is cell-based. The conditions noted are these: fixed 4 μg/mL meropenem; CAMHB, 16-20 hours at 37° C. In outline:
as §2

In assay [9] the test system is P. aeruginosa Ps296 expressing VIM-2. Briefly: Broth microdilution MIC, P. aeruginosa Ps296 VIM-2. In kind it is cell-based. The conditions noted are these: fixed 4 μg/mL meropenem; CAMHB, 16-20 hours at 37° C. In outline: as §2
For assay [10], the system named is K. pneumoniae A-1797 expressing KPC-2 and VIM-4. Nature of the assay: Broth microdilution MIC, K. pneumoniae A-1797 KPC-2/VIM-4. The format is cell-based. The conditions noted are these: fixed 4 μg/mL meropenem; CAMHB, 16-20 hours at 37° C. In outline:
as §2

The test system of assay [11] is S. aureus MSSA-7 producing penicillinase PC-1. Briefly: Broth microdilution MIC, S. aureus MSSA-7 PC-1. The settings on record: fixed 4 μg/mL piperacillin; CAMHB, 16-20 hours at 37° C. In kind it is cell-based. In short, it runs like this: as §2

T1 sequence (P0A3M1 22-286): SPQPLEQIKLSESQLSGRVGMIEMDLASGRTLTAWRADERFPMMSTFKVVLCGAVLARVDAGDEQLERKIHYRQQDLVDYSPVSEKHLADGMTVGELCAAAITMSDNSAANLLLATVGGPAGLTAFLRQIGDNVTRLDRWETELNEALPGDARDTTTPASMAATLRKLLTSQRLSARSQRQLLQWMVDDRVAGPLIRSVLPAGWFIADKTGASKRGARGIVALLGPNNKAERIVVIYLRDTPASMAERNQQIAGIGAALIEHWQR

For the compound `NCCN1CCC(NCC(=O)N[C@H]2Cc3cccc(C(=O)O)c3OB2O)CC1` [Example 52, 3-{2-[1-(2-Amino-ethyl)-piperidin-4-ylamino]-acetylamino}-2-hydroxy-3,4-dihydro-2H-benzo[e][1,2]oxaborinine-8-carboxylic acid], the half-maximal inhibitory concentration (IC50) (usually the midpoint of a concentration-inhibition curve) in [1] is < 100 nM; in assay [2] it was < 100 nM; in assay [3], 1000 to 10000 nM; in assay [4], < 100 nM; in assay [5], < 100 nM. In addition, the “MIC of example compound in presence of fixed β-lactam: Fixed CAZ, E. coli ESBL4 CTX-M-15” value in assay [6] is listed as “C (the MIC in the presence of <4 μg/mL of a β-lactamase inhibitor)”. For the same compound, the “MIC of example compound in presence of fixed β-lactam: Fixed CAZ, E. cl. 144200 p99 AmpC” value in assay [7] was “C (the MIC in the presence of <4 μg/mL of a β-lactamase inhibitor)”. Further, the “MIC of example compound in presence of fixed β-lactam: Fixed Mero, K. P. 156319 KPC-3” value in assay [8] is “C (the MIC in the presence of <4 μg/mL of a β-lactamase inhibitor)”. Moreover, the “MIC of example compound in presence of fixed β-lactam: Fixed Mero, P. aerug. Ps296 VIM-2” value in assay [9] is “B (the MIC in the presence of between 8 and 32 μg/mL of a β-lactamase inhibitor)”. Moreover, in assay [10], the “MIC of example compound in presence of fixed β-lactam: Fixed Mero, K. P. A-1797 KPC-2 VIM-4” value is “B (the MIC in the presence of between 8 and 32 μg/mL of a β-lactamase inhibitor)”. In addition, the “MIC of example compound in presence of fixed β-lactam: Fixed Pip, S. aureus MSSA-7 PC-1” value in assay [11] was “C (the MIC in the presence of <4 μg/mL of a β-lactamase inhibitor)”.

The values are drawn from US10294248B2, “Beta-lactamase inhibitors” (VenatoRx Pharmaceuticals, Inc., priority 2013, dated 2019).
